Key:
Format in all cases: biochemical
[1] = target: dipeptidyl peptidase 7 (DPP 7) (Homo sapiens, UniProt Q9UHL4); test: DPP 7 activity screening; settings: N.I. = No Inhibition
In short: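 Sample dissolved in DMSO, final DMSO kept at a level not affecting activity; tested at a single concentration from preliminary screening (e.g. 20 μg/mL). Dose-response data fitted to sigmoidal variable-slope model with bottom and top fixed at 0 and 100.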

FAP = target: T1, FAP (Homo sapiens, UniProt Q12884); test: FAP inhibition (Table 1); settings: N.I. = No Inhibition
T1 sequence (Q12884 1-760): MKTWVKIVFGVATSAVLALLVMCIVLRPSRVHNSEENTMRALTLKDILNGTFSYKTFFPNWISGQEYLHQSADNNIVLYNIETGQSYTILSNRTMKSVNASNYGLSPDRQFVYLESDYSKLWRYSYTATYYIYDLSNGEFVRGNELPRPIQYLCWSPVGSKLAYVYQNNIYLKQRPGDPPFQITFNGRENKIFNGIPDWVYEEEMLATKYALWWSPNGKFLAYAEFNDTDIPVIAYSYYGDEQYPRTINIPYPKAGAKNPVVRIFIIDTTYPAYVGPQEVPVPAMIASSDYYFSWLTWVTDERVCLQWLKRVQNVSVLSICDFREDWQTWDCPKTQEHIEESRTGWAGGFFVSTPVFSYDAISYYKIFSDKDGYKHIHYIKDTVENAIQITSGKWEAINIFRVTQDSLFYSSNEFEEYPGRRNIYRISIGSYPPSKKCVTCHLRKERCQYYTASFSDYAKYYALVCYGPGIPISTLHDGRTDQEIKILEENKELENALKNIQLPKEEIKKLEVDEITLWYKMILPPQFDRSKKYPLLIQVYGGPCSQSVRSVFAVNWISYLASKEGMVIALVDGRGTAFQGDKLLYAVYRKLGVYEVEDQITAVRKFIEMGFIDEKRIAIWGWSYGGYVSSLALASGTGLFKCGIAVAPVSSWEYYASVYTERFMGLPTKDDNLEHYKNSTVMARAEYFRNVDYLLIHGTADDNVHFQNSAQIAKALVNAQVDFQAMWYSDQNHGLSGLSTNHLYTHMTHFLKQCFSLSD

Human DPP 9 = target: T2, Human DPP 9 (Homo sapiens, UniProt Q86TI2); test: DPP 9 activity screening (Ala-Pro-AMC fluorescence); settings: N.I. = No Inhibition
T2 construct: made in house; host or cells: insect cells, baculovirus Bac-to-Bac
In short: (§1)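 Insect-cell baculovirus-expressed human enzymes hydrolyse Ala-Pro-AMC; AMC release monitored kinetically as fluorescence rate (ex 355/em 460 nm). Primary screen at a single concentration (e.g. 20 μg/mL); dose–response fitted to variable-slope sigmoid with bottom/top fixed at 0 and 100.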

human DPP 8 = target: T3, human DPP 8 (Homo sapiens, UniProt Q6V1X1); test: DPP 8 activity screening (Ala-Pro-AMC fluorescence); settings: N.I. = No Inhibition
T3 construct: made in house; host or cells: insect cells, baculovirus Bac-to-Bac
In short: as §1

human DPP IV = target: T4, human DPP IV (Homo sapiens, UniProt P27487); test: DPP IV activity screening (Ala-Pro-AMC fluorescence)
T4 construct: extracellular fragment of protease DPP IV (aa29-766); made in house; host or cells: baculovirus expression system Bac-to-Bac
In short: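 DPP IV activity is taken as the linear rate of fluorescence change at 460 nm. Samples are dissolved in DMSO and screened at a single concentration (e.g. 20 μg/mL). Dose-response data are fit to a variable-slope sigmoidal model with bottom and top fixed at 0 and 100.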

T2 sequence (Q86TI2 whole entry): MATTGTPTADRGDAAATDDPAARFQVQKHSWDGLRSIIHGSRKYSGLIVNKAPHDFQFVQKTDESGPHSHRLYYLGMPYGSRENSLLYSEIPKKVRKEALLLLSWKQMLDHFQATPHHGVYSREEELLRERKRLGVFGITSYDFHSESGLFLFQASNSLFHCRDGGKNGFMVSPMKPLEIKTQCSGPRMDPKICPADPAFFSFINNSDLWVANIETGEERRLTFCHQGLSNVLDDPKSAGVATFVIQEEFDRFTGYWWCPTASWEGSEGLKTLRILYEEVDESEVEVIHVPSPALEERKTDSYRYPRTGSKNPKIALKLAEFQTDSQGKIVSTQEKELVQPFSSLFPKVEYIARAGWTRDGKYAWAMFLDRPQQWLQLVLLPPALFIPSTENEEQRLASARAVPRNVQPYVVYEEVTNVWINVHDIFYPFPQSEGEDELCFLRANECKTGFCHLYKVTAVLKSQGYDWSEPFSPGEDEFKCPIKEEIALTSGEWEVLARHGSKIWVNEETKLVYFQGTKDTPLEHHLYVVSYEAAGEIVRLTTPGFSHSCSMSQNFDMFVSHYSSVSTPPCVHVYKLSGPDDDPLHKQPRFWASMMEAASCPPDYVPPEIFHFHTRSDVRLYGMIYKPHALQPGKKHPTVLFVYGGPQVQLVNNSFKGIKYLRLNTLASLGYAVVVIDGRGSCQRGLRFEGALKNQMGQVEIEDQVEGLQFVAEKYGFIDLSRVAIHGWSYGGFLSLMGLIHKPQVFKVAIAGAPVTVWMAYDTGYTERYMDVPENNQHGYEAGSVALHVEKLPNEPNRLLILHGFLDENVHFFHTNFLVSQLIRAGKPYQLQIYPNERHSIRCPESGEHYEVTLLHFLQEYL
T3 sequence (Q6V1X1 whole entry): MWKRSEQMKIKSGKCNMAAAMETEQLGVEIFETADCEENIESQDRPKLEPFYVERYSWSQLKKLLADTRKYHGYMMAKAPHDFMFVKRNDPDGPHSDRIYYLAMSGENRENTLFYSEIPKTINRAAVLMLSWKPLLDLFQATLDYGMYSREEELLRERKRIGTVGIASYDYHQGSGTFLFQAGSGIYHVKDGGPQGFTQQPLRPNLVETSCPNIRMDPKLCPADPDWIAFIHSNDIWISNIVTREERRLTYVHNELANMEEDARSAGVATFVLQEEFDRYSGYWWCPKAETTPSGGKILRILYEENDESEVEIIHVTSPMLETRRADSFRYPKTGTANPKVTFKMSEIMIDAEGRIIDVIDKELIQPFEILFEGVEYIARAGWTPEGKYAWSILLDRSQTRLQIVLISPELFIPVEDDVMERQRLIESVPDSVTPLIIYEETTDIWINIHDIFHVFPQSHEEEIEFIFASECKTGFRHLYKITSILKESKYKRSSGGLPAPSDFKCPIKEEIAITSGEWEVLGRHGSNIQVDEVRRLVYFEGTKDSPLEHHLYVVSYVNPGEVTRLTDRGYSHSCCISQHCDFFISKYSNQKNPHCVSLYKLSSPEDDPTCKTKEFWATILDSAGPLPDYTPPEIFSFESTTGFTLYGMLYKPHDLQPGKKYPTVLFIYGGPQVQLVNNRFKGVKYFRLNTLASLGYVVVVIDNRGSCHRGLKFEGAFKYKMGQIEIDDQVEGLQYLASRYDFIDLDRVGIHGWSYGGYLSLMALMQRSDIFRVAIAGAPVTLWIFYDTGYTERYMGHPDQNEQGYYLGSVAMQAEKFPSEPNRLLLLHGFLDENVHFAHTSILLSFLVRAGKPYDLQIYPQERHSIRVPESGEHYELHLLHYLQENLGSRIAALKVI
T4 sequence (P27487 29-766): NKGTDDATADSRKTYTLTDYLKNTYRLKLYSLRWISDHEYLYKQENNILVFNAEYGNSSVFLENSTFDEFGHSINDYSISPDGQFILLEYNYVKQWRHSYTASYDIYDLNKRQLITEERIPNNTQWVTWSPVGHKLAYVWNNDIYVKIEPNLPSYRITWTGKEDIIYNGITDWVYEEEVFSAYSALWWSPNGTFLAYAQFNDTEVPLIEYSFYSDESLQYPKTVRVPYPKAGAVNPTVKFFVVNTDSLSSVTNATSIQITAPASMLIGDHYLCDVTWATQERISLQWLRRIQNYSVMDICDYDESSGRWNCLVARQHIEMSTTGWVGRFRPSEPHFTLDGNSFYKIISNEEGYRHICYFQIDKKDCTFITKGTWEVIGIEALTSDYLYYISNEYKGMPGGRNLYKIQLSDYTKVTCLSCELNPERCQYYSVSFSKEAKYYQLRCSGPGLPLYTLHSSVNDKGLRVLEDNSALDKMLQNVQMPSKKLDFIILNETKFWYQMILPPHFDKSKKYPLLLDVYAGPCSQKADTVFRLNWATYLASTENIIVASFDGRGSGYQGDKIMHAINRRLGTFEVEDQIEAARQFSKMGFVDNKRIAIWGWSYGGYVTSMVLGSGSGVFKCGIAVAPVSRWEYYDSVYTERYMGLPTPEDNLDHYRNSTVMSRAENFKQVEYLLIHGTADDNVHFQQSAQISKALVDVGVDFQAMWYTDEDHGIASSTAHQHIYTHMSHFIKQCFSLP

SMILES | DPP 7 IC50 [1] | IC50 (FAP) | IC50 (Human DPP 9) | IC50 (human DPP 8) | IC50 (human DPP IV) | DPP 8 IC50 (human DPP 8) | FAP IC50 (FAP) | DPP 9 IC50 (Human DPP 9)
COC(=O)[C@@H](NC(=O)c1cc2nc(N3CCC[C@@H](N)C3)n(Cc3ccccc3C#N)c(=O)c2s1)C(C)C [Compound 100, (S)-methyl 2-(2-((R)-3-aminopiperidin-1-yl)-3-(2-cyanobenzyl)-4-oxo-3,4-dihydrothieno[3,2-d]pyrimidine-6-carboxamido)-3-methylbutanoate] | N.I. | 119 µM | 117 µM | 43.1 µM | 0.0283 µM |  |  | 
COC(=O)[C@H](Cc1ccc(O)cc1)NC(=O)c1cc2nc(N3CCC[C@@H](N)C3)n(Cc3ccccc3C#N)c(=O)c2s1 [Compound 101, (S)-methyl 2-(2-((R)-3-aminopiperidin-1-yl)-3-(2-cyanobenzyl)-4-oxo-3,4-dihydrothieno[3,2-d]pyrimidine-6-carboxamido)-3-(4-hydroxyphenyl)-propanoate] | N.I. | 42 µM | 14.8 µM | 13.5 µM | 0.0306 µM |  |  | 
COC(=O)[C@H](Cc1ccccc1)NC(=O)c1cc2nc(N3CCC[C@@H](N)C3)n(Cc3ccccc3C#N)c(=O)c2s1 [Compound 102, (S)-methyl 2-(2-((R)-3-aminopiperidin-1-yl)-3-(2-cyanobenzyl)-4-oxo-3,4-dihydrothieno[3,2-d]pyrimidine-6-carboxamido)-3-phenylpropanoate] | N.I. | 68.5 µM | 32.6 µM | 27.8 µM | 0.0384 µM |  |  | 
N#Cc1ccccc1Cn1c(N2CCC[C@@H](N)C2)nc2cc(C(=O)NCc3ccc(C(F)(F)F)cc3)sc2c1=O [Compound 103, (R)-2-(3-aminopiperidin-1-yl)-3-(2-cyanobenzyl)-4-oxo-N-(4-(trifluoromethyl)benzyl)-3,4-dihydrothieno[3,2-d]pyrimidine-6-carboxamide] | N.I. | 145 µM | 86.8 µM |  | 0.0538 µM | N.I. |  | 
N#Cc1ccccc1Cn1c(N2CCC[C@@H](N)C2)nc2cc(C(=O)N3CCCCC3)sc2c1=O [Compound 108, (R)-2-((2-(3-aminopiperidin-1-yl)-4-oxo-6-(piperidine-1-carbonyl)thieno-[3,2-d]pyrimidin-3(4H)-yl)methyl)-benzonitrile] | N.I. | 27 µM | 111 µM | 15.1 µM | 0.0118 µM |  |  | 
N#Cc1ccccc1Cn1c(N2CCC[C@@H](N)C2)nc2cc(C(=O)NCc3ccccc3F)sc2c1=O [Compound 109, (R)-2-(3-aminopiperidin-1-yl)-3-(2-cyanobenzyl)-N-(2-fluorobenzyl)-4-oxo-3,4-dihydrothieno[3,2-d]pyrimidine-6-carboxamide] | N.I. | 101 µM | 91.8 µM | 62.1 µM | 0.0156 µM |  |  | 
N#Cc1ccccc1Cn1c(N2CCC[C@@H](N)C2)nc2cc(C(=O)NCc3ccccc3Cl)sc2c1=O [Compound 110, (R)-2-(3-aminopiperidin-1-yl)-N-(2-chlorobenzyl)-3-(2-cyanobenzyl)-4-oxo-3,4-dihydrothieno[3,2-d]pyrimidine-6-carboxamide] | N.I. | 133 µM | 51.2 µM | 80.6 µM | 0.0248 µM |  |  | 
N#Cc1ccccc1Cn1c(N2CCC[C@@H](N)C2)nc2cc(C(=O)N3CCS(=O)(=O)CC3)sc2c1=O [Compound 114, (R)-2-((2-(3-aminopiperidin-1-yl)-6-(1,1-dioxidothiomorpholine-4-carbonyl)-4-oxothieno[3,2-d]pyrimidin-3(4H)-yl)-methyl)benzonitrile] | N.I. | 52.2 µM | 307 µM | 56.2 µM | 0.0222 µM |  |  | 

Next, values leading:

DPP 7 IC50 [1] | IC50 (FAP) | IC50 (Human DPP 9) | IC50 (human DPP 8) | IC50 (human DPP IV) | DPP 8 IC50 (human DPP 8) | FAP IC50 (FAP) | DPP 9 IC50 (Human DPP 9) | SMILES
N.I. | 178 µM | 179 µM | 66 µM | 0.0247 µM |  |  |  | COC(=O)CNC(=O)c1cc2nc(N3CCC[C@@H](N)C3)n(Cc3ccccc3C#N)c(=O)c2s1 [Compound 99, (R)-methyl 2-(2-(3-aminopiperidin-1-yl)-3-(2-cyanobenzyl)-4-oxo-3,4-dihydrothieno[3,2-d]pyrimidine-6-carboxamido)acetate]
N.I. | 239 µM | 254 µM |  | 0.0171 µM | N.I. |  |  | CNC(=O)c1cc2nc(N3CCC[C@@H](N)C3)n(Cc3ccccc3C#N)c(=O)c2s1 [Compound 104, (R)-2-(3-aminopiperidin-1-yl)-3-(2-cyanobenzyl)-N-methyl-4-oxo-3,4-dihydrothieno[3,2-d]pyrimidine-6-carboxamide]
N.I. | 200 µM | 257 µM |  | 0.027 µM | N.I. |  |  | CN(C)C(=O)c1cc2nc(N3CCC[C@@H](N)C3)n(Cc3ccccc3C#N)c(=O)c2s1 [Compound 105, (R)-2-(3-aminopiperidin-1-yl)-3-(2-cyanobenzyl)-N,N-dimethyl-4-oxo-3,4-dihydrothieno[3,2-d]pyrimidine-6-carboxamide]
N.I. | 117 µM | 127 µM | 76.2 µM | 0.0183 µM |  |  |  | N#Cc1ccccc1Cn1c(N2CCC[C@@H](N)C2)nc2cc(C(=O)NCC3CC3)sc2c1=O [Compound 106, (R)-2-(3-aminopiperidin-1-yl)-3-(2-cyanobenzyl)-N-(cyclopropylmethyl)-4-oxo-3,4-dihydrothieno[3,2-d]pyrimidine-6-carboxamide]
N.I. | 98.6 µM | 122 µM | 39.7 µM | 0.0241 µM |  |  |  | N#Cc1ccccc1Cn1c(N2CCC[C@@H](N)C2)nc2cc(C(=O)N3CCCC3)sc2c1=O [Compound 107, (R)-2-((2-(3-aminopiperidin-1-yl)-4-oxo-6-(pyrrolidine-1-carbonyl)thieno-[3,2-d]pyrimidin-3(4H)-yl)methyl)-benzonitrile]
N.I. |  | 131 µM | 112 µM | 0.0189 µM |  | N.I. |  | COCCNC(=O)c1cc2nc(N3CCC[C@@H](N)C3)n(Cc3ccccc3C#N)c(=O)c2s1 [Compound 111, (R)-2-(3-aminopiperidin-1-yl)-3-(2-cyanobenzyl)-N-(2-methoxyethyl)-4-oxo-3,4-dihydrothieno[3,2-d]-pyrimidine-6-carboxamide]
N.I. | 213 µM | 159 µM | 69.1 µM | 0.0238 µM |  |  |  | COCCCNC(=O)c1cc2nc(N3CCC[C@@H](N)C3)n(Cc3ccccc3C#N)c(=O)c2s1 [Compound 112, (R)-2-(3-aminopiperidin-1-yl)-3-(2-cyanobenzyl)-N-(3-methoxypropyl)-4-oxo-3,4-dihydrothieno[3,2-d]-pyrimidine-6-carboxamide]
N.I. | 173 µM | 303 µM | 166 µM | 0.0187 µM |  |  |  | CCNC(=O)c1cc2nc(N3CCC[C@@H](N)C3)n(Cc3ccccc3C#N)c(=O)c2s1 [Compound 113, (R)-2-(3-aminopiperidin-1-yl)-3-(2-cyanobenzyl)-N-ethyl-4-oxo-3,4-dihydrothieno[3,2-d]pyrimidine-6-carboxamide]
N.I. | 146 µM | 167 µM | 181 µM | 0.0145 µM |  |  |  | CC(C)NC(=O)c1cc2nc(N3CCC[C@@H](N)C3)n(Cc3ccccc3C#N)c(=O)c2s1 [Compound 115, (R)-2-(3-aminopiperidin-1-yl)-3-(2-cyanobenzyl)-N-isopropyl-4-oxo-3,4-dihydrothieno[3,2-d]pyrimidine-6-carboxamide]
N.I. | 126 µM |  | 95.3 µM | 0.0186 µM |  |  | N.I. | CC(C)CNC(=O)c1cc2nc(N3CCC[C@@H](N)C3)n(Cc3ccccc3C#N)c(=O)c2s1 [Compound 116, (R)-2-(3-aminopiperidin-1-yl)-3-(2-cyanobenzyl)-N-isobutyl-4-oxo-3,4-dihydrothieno[3,2-d]pyrimidine-6-carboxamide]

Reference: patent US9045491B2, “Thienyl [3,2-D] pyrimidin-4-one compounds, preparation method, pharmaceutical compositions and use thereof” (SHANGHAI INSTITUTE OF MATERIA MEDICA, CHINESE ACADEMY OF …, priority 2011, dated 2015)
